The record followed here is US10526581B2, “Modulation of cardiac stem-progenitor cell differentiation, assays and uses thereof” (priority 2013, dated 2020).

Entries after “also recorded” stand apart in the source; their conditions may differ.

Series [1] relates to rats after ISO damage. The following applies: rat, in vivo.
In series [2] the test system is c-kit^pos eCSCs. In words: cardiomyocyte differentiation of c-kit^pos eCSCs in differentiation medium (cTnI^pos cells, qRT-PCR). Format: cell-based, rat. The following applies: for number of myocyte differentiating (cTnI^pos) cells / transcription of myogenic lineage markers: differentiation medium (LIF withdrawal); for transcription of myogenic lineage markers: qRT-PCR; for differentiation of eCSCs into the cardiomyocyte lineage (myocyte specification): differentiation medium. Here is the method: FIGS. 4(A-E). […] Nuclei were identified by DAPI in blue. Bar=50 μm. […] Data are Mean±SD of n=6/condition. […]
RNA was extracted using Qiagen RNeasy columns and was reverse transcribed using first strand cDNA synthesis with random or oligo-dT primers (Applied Biosystems). Residual amounts of DNA were removed by on-column DNase treatment using the RNase-Free DNase Set (Qiagen) during the RNeasy procedure. Quantitative RT-PCR was performed using SYBR Green (BioRad) on a MyIQ thermocycler (BioRad). The PCR-reaction included 2 μl of template cDNA, and 300 nM forward and reverse primers. PCR efficiency was evaluated by using a standard curve of five serial dilution points. Data were analysed using BioRad IQ software and mRNA was normalized to the housekeeping gene, GAPDH. All reactions were carried out in triplicate.
For orientation: Real-time PCR tracks product formation cycle by cycle.

Series [3] deals with c-kit^pos CD45^neg eCSCs. Put plainly: BrdU incorporation proliferation assay of c-kit^pos eCSCs with cardiopoietic growth factors and Wnt or TGF-β modulators. Type of series: cell-based, rat. Conditions: in vitro. Here is the method:
(§1) c-kit^posCD45^neg eCSCs express functional receptors for these cardiopoetic factors (cGFs) (FIG. 4). In particular, both TGF-β1 and Wnt receptors are activated and signal to their known downstream effectors in eCSCs isolated from ISO injured hearts (FIG. 4). We thus directly tested in vitro the growth response of freshly isolated c-kit^pos CD45^neg eCSCs grown in limited serum (1% ESQ-FBS) to individual cGFs. Dose-response curves were performed to determine the optimal concentration for each cGF (FIG. 13A-H). […] These effects were confirmed by qRT-PCR of cardiomyocyte-specific mRNAs (FIG. 5).
(§2) Wnt/β-catenin and TGF-β/SMADs signaling play critical roles in the regulation of embryonic as well as different tissue-specific stem cell fate (21-23). In particular, these two signaling pathways have distinct functions in mammalian cardiogenesis (24-27). Thus, to extend our findings we have tested through gain and loss of function experiments the effects of Wnt/β-catenin and TGF-β/SMADs signaling pathways on c-kit^pos eCSC fate in vitro. […] To disrupt Wnt/ρ-catenin, c-kit^pos eCSCs were either treated with Dickkopf-1 (Dkk-1), an inhibitor of canonical Wnts or transfected with a specific short hairpin RNA for β-catenin (β-cat^shRNA). […] The positive and negative modulators of Wnt/β-catenin physiologically acted on their known molecular targets by respectively stabilizing or degrading β-catenin and its LEF/TCF-dependent transcriptional activity (FIG. 6). […] On the other hand, Dkk-1 increased c-kit^pos CSC myocyte specification (FIG. 5), even though its effect was not sufficient to produce a fully differentiated phenotype as indicated by the lack of cells which expressed abundant and organised sarcomeric structures (FIG. 5).

Series [4] has as its system rats with ISO+5-FU cardiomyopathy.
Series [5] deals with CSCs^GFP/TK and adult rat ventricular myocytes (ARVM). In words: GCV in vitro on CSCs^GFP/TK growth and on co-cultured adult rat ventricular myocytes. Type of series: cell-based. Here is the method:
c-kit^pos CSCs were grown in CSC growth medium consisting of Dulbecco's MEM/Ham's F12 (DMEM/F12; […] Millipore), bFGF (10 ng/ml; Peprotech), EGF (20 ng/ml; Peprotech), insulin-transferrin-selenite (ITS; […] Ganciclovir (GCV, 10^−5M) was added and cells were cultured for 3 and 7 days. Mouse c-kit^pos CSCs or c-kit^pos CSC-derived cardiospheres were cultured on glass chamber slides (BD Falcon), fixed with 4% PFA for 20 min, and then stained. […] For cardiomyocyte/CSC^GFP/TK co-culture assays, 3× wells/condition were fixed and stained to assess the number of apoptotic (TdT and caspase-3) cardiomyocytes (Kawaguchi et al., 2010). Cardiomyocytes were identified by co-staining for cTnI. The percentage of TdT-positive and caspase-3 positive cardiomyocytes was determined by counting 20 random fields at ×40 magnification for each well. Numbers were expressed as a percentage of TdT- or caspase-3 positive cardiomyocytes relative to the total number of cardiomyocytes counted. FITC or Texas Red-conjugated 2° Abs were used. Nuclei were stained with DAPI. Fluorescence was visualized and images acquired with confocal microscopy (Zeiss LSM 510 or 710).

The test system of series [6] is hCSCs. In words: stimulation of hCSCs with inflammatory cytokines, immunogenicity molecules. Format: cell-based, human. The source says: The human c-kit CSCs (hCSCs) from all the donors tested so far (n=8) expressed normal levels of the HLA class I and no detectable levels of HLA class II and the co-stimulatory molecules CD40, CD80 and CD 86 (see primary data example below)> they also fail to express CD 275 but express high levels of PD-L1 (CD274).

For series [7], the system named is c-kit^pos CD45^neg eCSCs. Put plainly: clonogenic assay of c-kit^pos eCSCs. Format: cell-based, rat. Conditions: in vitro. Here is the method:
as §1, §2

`O=c1[nH]cc(F)c(=O)[nH]1` [5-FU, 5-fluorouracil]: the “toxic effects of the 5-FU regime” value in series [1] was “did not cause any cellular or functional cardiac or extra-cardiac toxic effects”.

On to `O=C1Nc2cc(Br)ccc2/C1=C1/Nc2ccccc2/C1=N\O` [BIO, 6-bromoindirubin-3′-oxime], for which, in series [2], the “number of myocyte differentiating (cTnI^pos) cells” value (“number of myocyte differentiating” below) is “significantly reduced” and the “transcription of myogenic lineage markers” value (shortened to “transcription”) was “significantly reduced”. The “c-kit^pos eCSC proliferation (growth, expansion)” value (“c-kit^pos eCSC proliferation” for short) in series [3] was “stimulate”.

On to `Nc1nc(O)c2ncn(COC(CO)CO)c2n1` [GCV, Ganciclovir], for which the “effect of GCV treatment on recovered cellular and functional parameters” value in series [4] (ISO+5-FU+CSCs^GFP/TK group) was “dramatic reversal of all the recovered cellular and functional parameters”. Further, the “adverse effects of GCV treatment” value in series [4] (rat, in vivo) is reported as “did not cause any histological or functional adverse effects”. Also, the “adult rat ventricular myocyte (ARVM) apoptosis” value in series [5] (GCV 10^−5 M, alone or co-cultured with CSC^GFP/TK) is recorded as “does not cause any relevant effect”. Further, the “growth of Lenti-GFP/TK-transfected CSCs (CSCs^GFP/TK)” value in series [5] (GCV 10^−5 M, in vitro) is given as “growth arrest”. Besides, the “survival of adult rat ventricular CMs cultured with CSCs^GFP/TK” value in series [5] (GCV at a concentration sufficient to kill the CSCs^GFP/TK) was “does not affect survival”.

Regarding FGF-2: cardiopoietic growth factor, the “c-kit^pos eCSC proliferation” value in series [3] was “significantly increased”.

Turning to HGF: cardiopoietic growth factor, the “c-kit^pos eCSC proliferation” value in series [3] is recorded as “significantly increased”.

Turning to IFNγ: inflammatory cytokine, in series [6], the “expression of HLA class I and class II on hCSCs” value was “significantly enhanced”; the “expression of the co-stimulatory molecules CD40, CD80 and CD 86 on hCSCs” value was “does not induce”.

For IGF-1: cardiopoietic growth factor, the “c-kit^pos eCSC proliferation” value in series [3] is on record as “significantly increased”.

Take TGF-β1: cardiopoietic growth factor: in series [2], the “differentiation of eCSCs into the cardiomyocyte lineage (myocyte specification)” value (shortened to “differentiation”) is recorded as “promoted differentiation”, the “number of myocyte differentiating” value is recorded as “significantly induced” and the “transcription” value was “significantly induced”. Also, the “c-kit^pos eCSC proliferation” value in series [3] was “did not affect; also recorded: Neither BMP-2, BMP-4, TGF-β1 supplementation nor Smad2 knock-down affected”. Also, the “c-kit^pos eCSC clonogenicity” value in series [7] is reported as “did not affect; also recorded: Neither BMP-2, BMP-4, TGF-β1 supplementation nor Smad2 knock-down affected”.

B1: Dkk-1: Dickkopf-1, an inhibitor of canonical Wnts (protein, UniProt O94907 32-266, looked up)
Dickkopf-related protein 1: TLNSVLNSNAIKNLPPPLGGAAGHPGSAVSAAPGILYPGGNKYQTIDNYQPYPCAEDEECGTDEYCASPTRGGDAGVQICLACRKRRKRCMRHAMCCPGNYCKNGICVSSDQNHFRGEIEETITESFGNDHSTLDGYSRRTTLSSKMYHTKGQEGSVCLRSSDCASGLCCARHFWSKICKPVLKEGQVCTKHRRKGSHGLEIFQRCYCGEGLSCRIQKDHHQASNSSRLHTCQRH
On to B1, for which the “differentiation” value in series [2] is given as “increased”. The “c-kit^pos eCSC proliferation” value in series [3] is reported as “significant decrease”. The “c-kit^pos eCSC clonogenicity” value in series [7] is listed as “significant decrease”.

B2: BMP-10: cardiopoietic growth factor (protein, UniProt O95393 317-424, looked up)
Bone morphogenetic protein 10: NAKGNYCKRTPLYIDFKEIGWDSWIIAPPGYEAYECRGVCNYPLAEHLTPTKHAIIQALVHLKNSQKASKACCVPTKLEPISILYLDKGVVTYKFKYEGMAVSECGCR
For B2, in series [2], the “number of myocyte differentiating” value is recorded as “significantly induced” and the “transcription” value is on record as “significantly induced”.

B3: Wnt5a: non-canonical Wnt, cardiopoietic growth factor (protein, UniProt P41221 62-380, looked up)
Protein Wnt-5a: IIGAQPLCSQLAGLSQGQKKLCHLYQDHMQYIGEGAKTGIKECQYQFRHRRWNCSTVDNTSVFGRVMQIGSRETAFTYAVSAAGVVNAMSRACREGELSTCGCSRAARPKDLPRDWLWGGCGDNIDYGYRFAKEFVDARERERIHAKGSYESARILMNLHNNEAGRRTVYNLADVACKCHGVSGSCSLKTCWLQLADFRKVGDALKEKYDSAAAMRLNSRGKLVQVNSRFNSPTTQDLVYIDPSPDYCVRNESTGSLGTQGRLCNKTSEGMDGCELMCCGRGYDQFKTVQTERCHCKFHWCCYVKCKKCTEIVDQFVCK
In the case of B3, the “differentiation” value in series [2] is “promoted differentiation”. Further, in series [3], the “c-kit^pos eCSC proliferation” value is recorded as “did not affect”. Moreover, the “c-kit^pos eCSC clonogenicity” value in series [7] is recorded as “did not affect”.

B4: BMP-4: cardiopoietic growth factor (protein, UniProt P12644 293-408, looked up)
Bone morphogenetic protein 4: SPKHHSQRARKKNKNCRRHSLYVDFSDVGWNDWIVAPPGYQAFYCHGDCPFPLADHLNSTNHAIVQTLVNSVNSSIPKACCVPTELSAISMLYLDEYDKVVLKNYQEMVVEGCGCR
Consider B4, for which, in series [2], the “differentiation” value is on record as “promoted differentiation”, the “number of myocyte differentiating” value is recorded as “significantly induced” and the “transcription” value was “significantly induced”. In addition, the “c-kit^pos eCSC proliferation” value in series [3] is reported as “did not affect; also recorded: Neither BMP-2, BMP-4, TGF-β1 supplementation nor Smad2 knock-down affected”. Further, the “c-kit^pos eCSC clonogenicity” value in series [7] is “did not affect; also recorded: Neither BMP-2, BMP-4, TGF-β1 supplementation nor Smad2 knock-down affected”.

B5: Wnt3a: soluble Wnt-3a, canonical Wnt growth factor (protein, UniProt P56704 19-352, looked up)
Protein Wnt-3a: SYPIWWSLAVGPQYSSLGSQPILCASIPGLVPKQLRFCRNYVEIMPSVAEGIKIGIQECQHQFRGRRWNCTTVHDSLAIFGPVLDKATRESAFVHAIASAGVAFAVTRSCAEGTAAICGCSSRHQGSPGKGWKWGGCSEDIEFGGMVSREFADARENRPDARSAMNRHNNEAGRQAIASHMHLKCKCHGLSGSCEVKTCWWSQPDFRAIGDFLKDKYDSASEMVVEKHRESRGWVETLRPRYTYFKVPTERDLVYYEASPNFCEPNPETGSFGTRDRTCNVSSHGIDGCDLLCCGRGHNARAERRREKCRCVFHWCCYVSCQECTRVYDVHTCK
B5: the “number of myocyte differentiating” value in series [2] is “significantly reduced”. Also, the “transcription” value in series [2] is given as “significantly reduced”. Also, the “c-kit^pos eCSC proliferation” value in series [3] was “significantly increased”; in series [3] (listed as Wnt-3a) it was “stimulate”. For the same molecule, the “c-kit^pos eCSC clonogenicity” value in series [7] is recorded as “most effective”; in series [7] (listed as Wnt-3a), “stimulate”.
